The values below come from patent publication US8138187B2, “Substituted heteroaryl derivatives” (Gruenenthal GmbH, priority 2006, dated 2012).

SMILES strings stand for the structures.

The assay has as its target human μ opiate receptor (Homo sapiens, UniProt P35372). In words: μ binding, displacement of [3H]-naloxone. Conditions: CHO-K1 membranes expressing human μ opiate receptor; Cheng-Prusoff. In general terms: Loss of bound radioactivity is the signal in a displacement assay; it reports binding, not function.

Chain of human μ opiate receptor (P35372 whole entry): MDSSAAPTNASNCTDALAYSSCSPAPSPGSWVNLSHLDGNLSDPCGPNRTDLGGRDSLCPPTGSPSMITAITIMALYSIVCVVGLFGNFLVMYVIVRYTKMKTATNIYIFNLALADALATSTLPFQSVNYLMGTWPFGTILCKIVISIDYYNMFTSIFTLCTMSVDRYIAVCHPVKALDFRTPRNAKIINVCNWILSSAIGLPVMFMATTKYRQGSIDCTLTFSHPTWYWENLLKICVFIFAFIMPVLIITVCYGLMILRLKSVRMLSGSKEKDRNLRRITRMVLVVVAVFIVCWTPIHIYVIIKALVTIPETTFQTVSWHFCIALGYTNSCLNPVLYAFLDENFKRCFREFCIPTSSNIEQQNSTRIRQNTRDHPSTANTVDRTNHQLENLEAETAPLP

`CN(C)C1(Cc2ccccc2)CC=C(c2cc3ccccc3n2C)CC1` (stereo not shown) [Example 302, [1-Benzyl-4-(1-methyl-1H-indol-2-yl)cyclohex-3-enyl]dimethylamine] returned a Ki of 0.103 µM.

What is called Ki is a dissociation constant, usually derived from enzyme kinetics or from competition with a known ligand.
